Eleven compounds from patent US9084424B2, “N-benzyl heterocyclic carboxamides” (BAYER INTELLECTUAL PROPERTY GMBH, priority 2010, dated 2015) can be followed below.

Broadly, the logP is a log measure of how a compound divides between an organic and an aqueous phase. A high value points to a more lipophilic compound.

Series [1] is described as follows: log P by HPLC on reversed-phase column (EEC Directive 79/831 Annex V.A8). The format is physicochemical. The following applies: 0.1% aqueous formic acid and acetonitrile, linear gradient 10% to 90% acetonitrile. In short, it runs like this: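 Gradient elution (10% to 90% acetonitrile, 0.1% aqueous formic acid) at 40° C; log P interpolated linearly between flanking alkan-2-one standards (3 to 16 carbons).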

For the next series, the system named is Alternaria solani. Nature of the series: In vivo preventive test on Alternaria solani (tomato). The following applies: preventive spray, 500 ppm of active ingredient, evaluated 7 days after inoculation. Put shortly: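 Young tomato plants sprayed with compound formulated in DMF with alkylarylpolyglycolether emulsifier and diluted in water, then inoculated one day later with A. solani spore suspension. Kept 1 day at about 22 °C, 100% humidity, then about 20 °C, 96% humidity. Efficacy scored 7 days post-inoculation, 0% = untreated control, 100% = no disease.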

Another series has as its system Septoria tritici. Kind of series: In vivo preventive test on Septoria tritici (wheat). Particulars: preventive spray, 500 ppm of active ingredient, evaluated 21 days after inoculation. The protocol: In Vivo Preventive Test on Septoria tritici (Wheat)
(§1) Solvent: 49 parts by weight of N,N-dimethylacetamide
(§2) Emulsifier: 1 part by weight of alkylaryl polyglycol ether
(§3) To produce a suitable preparation of active compound, 1 part by weight of active compound or active compound combination is mixed with the stated amounts of solvent and emulsifier, and the concentrate is diluted with water to the desired concentration.
(§4) To test for preventive activity, young plants are sprayed with the preparation of active compound or active compound combination at the stated rate of application.
After the spray coating has been dried, the plants are sprayed with a spore suspension of Septoria tritici. The plants remain for 48 hours in an incubation cabinet at approximately 20° C. and a relative atmospheric humidity of approximately 100% and afterwards for 60 hours at approximately 15° C. in a translucent incubation cabinet at a relative atmospheric humidity of approximately 100%.
The plants are placed in the greenhouse at a temperature of approximately 15° C. and a relative atmospheric humidity of approximately 80%.
The test is evaluated 21 days after the inoculation. 0% means an efficacy which corresponds to that of the untreated control, while an efficacy of 100% means that no disease is observed.

The subject of the next series is Pyrenophora teres. Nature of the series: In vivo preventive test on Pyrenophora teres (barley). The following applies: preventive spray, 500 ppm of active ingredient, evaluated 7-9 days after inoculation. Put shortly: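 Young barley plants were sprayed with compound formulated in N,N-dimethylacetamide/emulsifier and diluted with water, then inoculated with P. teres spores one day later. After 48 h at 22° C., 100% humidity, plants stood in a greenhouse (~20° C., ~80% humidity); efficacy versus untreated control was scored 7-9 days post-inoculation.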

Another series relates to Sphaerotheca fuliginea. Kind of series: In vivo preventive test on Sphaerotheca fuliginea (cucumber). The following applies: preventive spray, 500 ppm of active ingredient, evaluated 7 days after inoculation.
The subject of series [2] is Blumeria graminis f.sp. hordei. Kind of series: In vivo preventive test on Blumeria graminis (barley). The following applies: preventive spray, 500 ppm of active ingredient, evaluated 7 days after inoculation. The procedure: In Vivo Preventive Test on Blumeria graminis (Barley)
as §1, §2, §3, §4
After the spray coating has been dried, the plants are dusted with spores of Blumeria graminis f.sp. hordei.
The plants are placed in the greenhouse at a temperature of approximately 18° C. and a relative atmospheric humidity of approximately 80% to promote the development of mildew pustules.
The test is evaluated 7 days after the inoculation. 0% means an efficacy which corresponds to that of the untreated control, while an efficacy of 100% means that no disease is observed.

In another series the test system is Puccinia triticina. Kind of series: In vivo preventive test on Puccinia triticina (wheat). The following applies: preventive spray, 500 ppm of active ingredient, evaluated 8 days after inoculation. The protocol:
In Vivo Preventive Test on Puccinia triticina (Wheat)
as §1, §2, §3, §4
After the spray coating has been dried, the plants are sprayed with a spore suspension of Puccinia triticina. The plants remain for 48 hours in an incubation cabinet at approximately 20° C. and a relative atmospheric humidity of approximately 100%.
The plants are placed in the greenhouse at a temperature of approximately 20° C. and a relative atmospheric humidity of approximately 80%.
The test is evaluated 8 days after the inoculation. 0% means an efficacy which corresponds to that of the untreated control, while an efficacy of 100% means that no disease is observed.

A further series deals with Leptosphaeria nodorum. Nature of the series: In vivo preventive test on Leptosphaeria nodorum (wheat). Particulars: preventive spray, 500 ppm of active ingredient, evaluated 7-9 days after inoculation. The procedure:
In Vivo Preventive Test on Leptosphaeria nodorum (Wheat)
as §1, §2
To produce a suitable preparation of active compound, 1 part by weight of active compound is mixed with the stated amounts of solvent and emulsifier, and the concentrate is diluted with water to the desired concentration.
To test for preventive activity, young plants are sprayed with a preparation of active compound at the stated rate of application. One day after this treatment, the plants are inoculated with an aqueous spore suspension of Leptosphaeria nodorum. The plants remain for 48 hours in an incubation cabinet at 22° C. and a relative atmospheric humidity of 100%. Then the plants are placed in a greenhouse at a temperature of approximately 22° C. and a relative atmospheric humidity of approximately 90%.
The test is evaluated 7-9 days after the inoculation. 0% means an efficacy which corresponds to that of the untreated control, while an efficacy of 100% means that no disease is observed.
Under these conditions, good (at least 70%) to excellent protection (at least 95%) is observed at a dose of 500 ppm of active ingredient with the following compounds from table D: […]

[3] abbreviates: HPLC, reversed-phase C 18, 40° C.
[4] abbreviates: HPLC on reversed-phase column (C 18), 40° C.

Turning to `CC(NC(=O)c1c(C(F)F)nn(C)c1F)c1cccc(Cl)c1Cl` (racemic) [Example 29], the logP in series [1] (setting [3]) is given as 3.13. The Efficacy came out at 94% in the series with Alternaria solani, 88% in the series on Septoria tritici and 100% with Pyrenophora teres.
With `CCN(Cc1ccccc1C(C)C)C(=O)c1c(C(F)F)nn(C)c1F` [Example 68], the Efficacy with Sphaerotheca fuliginea worked out at 100%; in series [2], 100%; with Alternaria solani, 80%; with Puccinia triticina it was 70%; with Septoria tritici it was 100%; with Pyrenophora teres, 100%. This compound gave a logP in series [1] (setting [3]) of 3.42.
Regarding `CC(C)c1ccccc1CN(C)C(=O)c1c(C(F)F)nn(C)c1F` [Example 72], the Efficacy is on record as 98% in the series on Sphaerotheca fuliginea; 100% in series [2]; 95% in the series with Alternaria solani; 78% in the series on Leptosphaeria nodorum; 90% in the series with Septoria tritici; 100% in the series on Pyrenophora teres. This compound also gave a logP in series [1] (setting [3]) of 3.11.
Turning to `Cn1nc(C(F)F)c(C(=O)N(Cc2c(Cl)cccc2C(F)(F)F)C2CCC2)c1F` [Example 90], the Efficacy stood at 100% in the series with Sphaerotheca fuliginea; 100% in series [2]; 95% with Alternaria solani; 95% with Puccinia triticina; 100% in the series with Septoria tritici; 100% in the series on Pyrenophora teres. Also, the logP in series [1] (setting [3]) is listed as 3.81.
Regarding `Cn1nc(C(F)F)c(C(=O)N(Cc2ccccc2[Si](C)(C)C)C2CCC2)c1F` [Example 98], the Efficacy in the series with Sphaerotheca fuliginea is listed as 96%; with Alternaria solani, 70%; with Puccinia triticina, 95%. In addition, the logP in series [1] (setting [3]) was 4.61.
For the compound `CCN(Cc1ccccc1[Si](C)(C)C)C(=O)c1c(C(F)F)nn(C)c1F` [Example 99], the Efficacy in the series on Sphaerotheca fuliginea was determined as 95%; in the series with Alternaria solani it was 95%; in the series with Puccinia triticina, 100%; with Pyrenophora teres, 95%. The compound also registered a logP in series [1] (setting [3]) of 4.09.
Regarding `C#CCN(Cc1ccccc1[Si](C)(C)C)C(=O)c1c(C(F)F)nn(C)c1F` [Example 101], the logP in series [1] (setting [3]) is listed as 3.93. Further, the values for the Efficacy in the series on Alternaria solani, in the series on Puccinia triticina and in the series on Pyrenophora teres were 70%, 90% and 80%, respectively.
With `CC(c1cc(Cl)cc(Cl)c1)N(C)C(=O)c1c(C(F)F)nn(C)c1F` (stereo not drawn) [Example 117], the Efficacy was determined as 95% in the series with Sphaerotheca fuliginea; 100% in the series with Alternaria solani; 70% in the series on Leptosphaeria nodorum; 70% in the series with Puccinia triticina; 100% in the series on Pyrenophora teres. Further, in series [1] (setting [4]), the logP came to 3.46.
Turning to `CN(Cc1ncc(Cl)cc1Cl)C(=O)c1c(C(F)F)nn(C)c1Cl` [Example 180], the logP in series [1] (setting [4]) was 2.73. Besides, the Efficacy is listed as 80% in the series on Alternaria solani, 80% with Puccinia triticina and 100% in the series with Pyrenophora teres.
As to `CON(Cc1ncc(Cl)cc1Cl)C(=O)c1c(C(F)F)nn(C)c1F` [Example 181], in series [1] (setting [4]), the logP amounted to 2.73. The Efficacy amounted to 80% in the series on Alternaria solani, 70% in the series with Leptosphaeria nodorum, 70% in the series on Puccinia triticina and 100% with Pyrenophora teres.
For `CC(c1ncc(Cl)cc1Cl)N(C)C(=O)c1c(C(F)F)nn(C)c1F` (stereo not drawn) [Example 185], the Efficacy in series [2] turned out to be 100%; in the series on Alternaria solani, 100%; with Leptosphaeria nodorum, 95%; in the series on Puccinia triticina, 90%; in the series with Septoria tritici it was 100%; in the series with Pyrenophora teres, 95%. Further, the log partition coefficient (logP) in series [1] (setting [4]) stood at 2.92.
